Measured values reported in PMC8035703, “Effect of Synchronous Versus Sequential Regimens on the Pharmacokinetics and Biodistribution of Regorafenib with Irradiation” (Pharmaceutics, 2021).
Where two headings read alike, the source gives them in different places.

How the values were obtained:
Huh-7 cells [1] = assay: Cell cycle analysis (propidium iodide, flow cytometry); type: cell-based, human
Experimental: The cells were collected, fixed and stained with propidium iodide. Flow cytometry was performed, using a Beckman Coulter Elite Epics sorter. The sub-G1 phase was used to quantify dead cells in the apoptosis assays. Cells were released into DMSO or regorafenib at 5, 10 and 20 μM in the concurrent or sequential groups with different RT doses. Floating and adherent cells were harvested at various time points, stained with propidium iodide and analyzed by flow cytometry.

Huh-7 cells [2] = assay: Cell viability assay (MTT), Huh-7; type: cell-based, human; conditions: for IC50 / viability at 5 µM / viability at 10 µM / viability at 20 µM: Homo sapiens; for IC50: MTT after 24 h, read-out: IC50 (estimated concentration at which 50% of cells were killed); for viability at 5 µM: Huh-7, regorafenib 5 μM; for viability at 10 µM: Huh-7, regorafenib 10 μM; for viability at 20 µM: Huh-7, regorafenib 20 μM
Experimental: Human hepatoma Huh-7 and Hep G2 cell lines kindly provided by Professor Hu (Taipei Veterans General Hospital, Taiwan) were plated into 96-well plates (1 × 10^3 per well) with serum-containing medium (100 μL) for 1 day. Regorafenib at concentrations of 0, 5, 10 and 20 μmol/L (μM) was added to the plates. Then, the study groups were designed: the concurrent group (1 h after irradiation) or sequential group (24 h after irradiation) with sham RT (RT0 Gy), 2 Gy (RT2 Gy) and 9 Gy (RT9 Gy). Additionally, after 24 h, 20 μL of 5 mg/mL MTT was added to the plates and incubated for 3 h. The supernatant was discarded, the precipitate was dissolved in 200 μL DMSO, and the plates were read with a microplate reader at 570 nm and a reference wavelength of 630 nm.

## CNC(=O)c1cc(Oc2ccc(NC(=O)Nc3ccc(Cl)c(C(F)(F)F)c3)c(F)c2)ccn1 [regorafenib, Regorafenib]
Huh-7 cells [1]; concurrent groups
  Accumulation of sub-G1 Huh-7 cells (in words): correlated with the dose of regorafenib but was not correlated with RT or its absence
Huh-7 cells [1]; sequential groups
  Accumulation of sub-G1 Huh-7 cells (in words): correlated with the doses of regorafenib and RT
Huh-7 cells [2]; 0-20 μM
  Effect on viability of Huh-7 cells (in words): inhibited the viability of Huh-7 cells in a dose-dependent manner
Huh-7 cells [2]; Huh-7, 24 h, Huh-7, RT0 Gy, S (regorafenib added 24 h following RT)
  IC50: 12.8 µM
Huh-7 cells [2]; Huh-7, 24 h, Huh-7, RT2 Gy, S (regorafenib added 24 h following RT)
  IC50: 12.1 µM
Huh-7 cells [2]; Huh-7, 24 h, Huh-7, RT9 Gy, S (regorafenib added 24 h following RT)
  IC50: 15.2 µM
Huh-7 cells [2]; Huh-7, Huh-7, RT0 Gy, C (regorafenib added 1 h following RT)
  IC50: 6.56 µM
Huh-7 cells [2]; Huh-7, Huh-7, RT2 Gy, C (regorafenib added 1 h following RT)
  IC50: 6.38 µM
Huh-7 cells [2]; Huh-7, Huh-7, RT9 Gy, C (regorafenib added 1 h following RT)
  IC50: 6.36 µM
Huh-7 cells [2]; Huh-7, RT0 Gy, C
  viability at 5 µM: 60.9 ± 1.8%
  viability at 10 µM: 35.1 ± 1.6%
  viability at 20 µM: 15.4 ± 1%
Huh-7 cells [2]; Huh-7, RT0 Gy, S
  viability at 5 µM: 72.6 ± 1%
  viability at 10 µM: 55.2 ± 1.2%
  viability at 20 µM: 41.4 ± 0.4%
Huh-7 cells [2]; Huh-7, RT2 Gy, C
  viability at 5 µM: 59.8 ± 5.5%
  viability at 10 µM: 33.9 ± 2.7%
  viability at 20 µM: 14.4 ± 0.8%
Huh-7 cells [2]; Huh-7, RT2 Gy, S
  viability at 5 µM: 59.5 ± 2.7%
  viability at 10 µM: 46 ± 2.9%
  viability at 20 µM: 36.3 ± 1.4%
Huh-7 cells [2]; Huh-7, RT9 Gy, C
  viability at 5 µM: 62.3 ± 14.1%
  viability at 10 µM: 34.3 ± 5.3%
  viability at 20 µM: 14.1 ± 0.7%
Huh-7 cells [2]; Huh-7, RT9 Gy, S
  viability at 5 µM: 60.2 ± 5.6%
  viability at 10 µM: 47.6 ± 3%
  viability at 20 µM: 41.1 ± 1.7%
Huh-7 cells [2]; Huh-7 and Hep G2
  Viability: concurrent regorafenib with RT2 Gy and RT9 Gy vs regorafenib only (in words): no synergistic effects
Huh-7 cells [2]; Huh-7 and Hep G2, regorafenib 10 and 20 μM, sequential
  Viability with regorafenib following RT2 Gy and RT9 Gy (in words): higher than the regorafenib-only and concurrent regimen
